Results taken from ChEMBL document CHEMBL4190279 (Eur J Med Chem, 2017).
Activity calls are given as the source filed them. The rule behind the calls is not given here.

Legend:
SW1573 [1] = experiment: Potency index, ratio of cisplatin GI50 to compound GI50 for human SW1573 cells; assay type: functional
Cholinesterase [2] = molecular target: T1, Cholinesterase (Equus caballus, UniProt P81908); experiment: Mixed-type inhibition of equine serum BuChE assessed as enzyme-substrate-inhibitor complex using p-nitrophenyl butyrate as substrate by Lineweaver-Burk plot analysis
T1 sequence (P81908 whole entry): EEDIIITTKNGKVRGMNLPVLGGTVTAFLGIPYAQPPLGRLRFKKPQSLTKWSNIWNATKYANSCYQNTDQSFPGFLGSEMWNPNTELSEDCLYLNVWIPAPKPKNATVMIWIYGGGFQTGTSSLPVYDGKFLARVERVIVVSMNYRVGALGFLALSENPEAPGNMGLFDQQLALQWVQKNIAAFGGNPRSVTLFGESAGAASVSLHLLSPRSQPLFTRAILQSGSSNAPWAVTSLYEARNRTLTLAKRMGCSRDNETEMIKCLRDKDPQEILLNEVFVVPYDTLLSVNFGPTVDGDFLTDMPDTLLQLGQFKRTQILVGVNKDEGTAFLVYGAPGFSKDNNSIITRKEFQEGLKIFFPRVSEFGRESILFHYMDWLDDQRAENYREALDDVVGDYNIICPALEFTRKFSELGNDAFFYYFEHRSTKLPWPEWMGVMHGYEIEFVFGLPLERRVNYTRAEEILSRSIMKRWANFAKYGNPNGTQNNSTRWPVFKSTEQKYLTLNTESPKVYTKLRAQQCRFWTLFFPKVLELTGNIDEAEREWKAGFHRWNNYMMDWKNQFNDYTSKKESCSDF

HeLa [3] = experiment: Potency index, ratio of 5-FU GI50 to compound GI50 for human HeLa cells; assay type: functional
Cholinesterase [4] = molecular target: T1, Cholinesterase; experiment: Mixed-type inhibition of equine serum BuChE assessed as enzyme-inhibitor complex using p-nitrophenyl butyrate as substrate by Lineweaver-Burk plot analysis
T47D [5] = experiment: cells; details: Homo sapiens, 48 h
Description: Antiproliferative activity against human T47D cells after 48 hrs by SRB assay

T47D [6] = experiment: Cell cycle arrest in human T47D cells assessed as accumulation at G1-phase at 0.2 uM after 24 hrs by propidium iodide staining based flow cytometry; assay type: functional
A549 [7] = experiment: Cell cycle arrest in human A549 cells assessed as accumulation at subG1-phase at 1 uM after 24 hrs by propidium iodide staining based flow cytometry; assay type: functional
A549 [8] = experiment: Potency index, ratio of cisplatin GI50 to compound GI50 for human A549 cells; assay type: functional
[9] = GPx-like activity of the compound assessed as half life for H2O2 reduction by measuring oxidation of PhSH to (PhS)2 at 50 uM measured for 180 secs by spectrophotometric analysis relative to control; assay type: functional
HBL-100 [10] = experiment: Cell cycle arrest in human HBL100 cells assessed as accumulation at subG1-phase at 1 uM after 24 hrs by propidium iodide staining based flow cytometry; assay type: functional
HBL-100 [11] = experiment: cells; details: Homo sapiens, HBL-100, 48 h
Description: Antiproliferative activity against human HBL100 cells after 48 hrs by SRB assay

HeLa [12] = experiment: Potency index, ratio of cisplatin GI50 to compound GI50 for human HeLa cells; assay type: functional
A549 [13] = experiment: cells; details: Homo sapiens, A549, 48 h
Description: Antiproliferative activity against human A549 cells after 48 hrs by SRB assay

[14] = GPx-like activity of the compound assessed as velocity for H2O2 reduction by measuring oxidation of PhSH to (PhS)2 at 50 uM measured for 180 secs by spectrophotometric analysis; assay type: functional
[15] = Selectivity index, ratio of Ki for equine serum BuChE assessed as enzyme-substrate-inhibitor complex to Ki for electric eel AChE assessed as enzyme-substrate-inhibitor complex
SW1573 [16] = experiment: Potency index, ratio of 5-FU GI50 to compound GI50 for human SW1573 cells; assay type: functional
WiDr [17] = experiment: Cell cycle arrest in human WiDr cells assessed as accumulation at G1-phase at 0.2 uM after 24 hrs by propidium iodide staining based flow cytometry; assay type: functional
SW1573 [18] = experiment: Cell cycle arrest in human SW1573 cells assessed as accumulation at subG1-phase at 1 uM after 24 hrs by propidium iodide staining based flow cytometry; assay type: functional
WiDr [19] = experiment: Potency index, ratio of cisplatin GI50 to compound GI50 for human WiDr cells; assay type: functional
WiDr [20] = experiment: Cell cycle arrest in human WiDr cells assessed as accumulation at subG1-phase at 1 uM after 24 hrs by propidium iodide staining based flow cytometry; assay type: functional
WiDr [21] = experiment: Potency index, ratio of 5-FU GI50 to compound GI50 for human WiDr cells; assay type: functional
A549 [22] = experiment: Cell cycle arrest in human A549 cells assessed as accumulation at G1-phase at 0.2 uM after 24 hrs by propidium iodide staining based flow cytometry; assay type: functional
HBL-100 [23] = experiment: Potency index, ratio of cisplatin GI50 to compound GI50 for human HBL100 cells; assay type: functional
HeLa [24] = experiment: Cell cycle arrest in human HeLa cells assessed as accumulation at subG1-phase at 1 uM after 24 hrs by propidium iodide staining based flow cytometry; assay type: functional
HBL-100 [25] = experiment: Cell cycle arrest in human HBL100 cells assessed as accumulation at G1-phase at 0.2 uM after 24 hrs by propidium iodide staining based flow cytometry; assay type: functional
HBL-100 [26] = experiment: Potency index, ratio of 5-FU GI50 to compound GI50 for human HBL100 cells; assay type: functional
T47D [27] = experiment: Potency index, ratio of 5-FU GI50 to compound GI50 for human T47D cells; assay type: functional
T47D [28] = experiment: Potency index, ratio of cisplatin GI50 to compound GI50 for human T47D cells; assay type: functional
Acetylcholinesterase [29] = molecular target: T2, Acetylcholinesterase (Electrophorus electricus, UniProt O42275); experiment: Non-competitive inhibition of electric eel AChE assessed as enzyme-substrate-inhibitor complex using p-nitrophenyl acetate as substrate by Lineweaver-Burk plot analysis
T2 sequence (O42275 whole entry): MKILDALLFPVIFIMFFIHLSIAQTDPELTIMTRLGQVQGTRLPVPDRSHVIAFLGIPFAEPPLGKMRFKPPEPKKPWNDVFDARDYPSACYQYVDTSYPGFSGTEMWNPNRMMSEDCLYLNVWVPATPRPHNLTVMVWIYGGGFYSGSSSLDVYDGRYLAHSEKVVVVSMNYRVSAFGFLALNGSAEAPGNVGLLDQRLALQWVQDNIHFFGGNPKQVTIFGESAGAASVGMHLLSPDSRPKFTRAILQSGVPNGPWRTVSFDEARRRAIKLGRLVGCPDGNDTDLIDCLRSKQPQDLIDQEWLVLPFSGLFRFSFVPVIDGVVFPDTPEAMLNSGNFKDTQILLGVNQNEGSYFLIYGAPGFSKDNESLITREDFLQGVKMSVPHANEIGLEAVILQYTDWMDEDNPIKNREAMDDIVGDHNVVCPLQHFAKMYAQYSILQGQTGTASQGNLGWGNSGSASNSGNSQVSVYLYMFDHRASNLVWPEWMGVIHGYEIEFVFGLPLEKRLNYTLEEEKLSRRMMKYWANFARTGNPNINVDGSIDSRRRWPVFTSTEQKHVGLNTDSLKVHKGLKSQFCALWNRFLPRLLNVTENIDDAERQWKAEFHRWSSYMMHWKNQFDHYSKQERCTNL

SW1573 [30] = experiment: cells; details: Homo sapiens, SW1573, 48 h
Description: Antiproliferative activity against human SW1573 cells after 48 hrs by SRB assay

HeLa [31] = experiment: Cell cycle arrest in human HeLa cells assessed as accumulation at G1-phase at 0.2 uM after 24 hrs by propidium iodide staining based flow cytometry; assay type: functional
in vitro = details: human, hTERT-BJ cells
Description: Antiproliferative activity against human hTERT-BJ cells after 48 hrs by SRB assay

HeLa [32] = experiment: cells; details: Homo sapiens, 48 h
Description: Antiproliferative activity against human HeLa cells after 48 hrs by SRB assay

Acetylcholinesterase [33] = molecular target: T2, Acetylcholinesterase; experiment: Non-competitive inhibition of electric eel AChE assessed as enzyme-inhibitor complex using p-nitrophenyl acetate as substrate by Lineweaver-Burk plot analysis
WiDr [34] = experiment: cells; details: Homo sapiens, 48 h
Description: Antiproliferative activity against human WiDr cells after 48 hrs by SRB assay

T47D [35] = experiment: Cell cycle arrest in human T47D cells assessed as accumulation at subG1-phase at 1 uM after 24 hrs by propidium iodide staining based flow cytometry; assay type: functional
SW1573 [36] = experiment: Cell cycle arrest in human SW1573 cells assessed as accumulation at G1-phase at 0.2 uM after 24 hrs by propidium iodide staining based flow cytometry; assay type: functional
[37] = GPx-like activity of the compound assessed as H2O2 reduction by measuring oxidation of PhSH to (PhS)2 at 50 uM measured for 180 secs by spectrophotometric analysis relative to control; assay type: functional

In the case of `c1ccc2c(NCCCCCC[Se][Se]CCCCCCNc3c4c(nc5ccccc35)CCCC4)c3c(nc2c1)CCCC3`, the RatioGI50 (SW1573 [1]) is reported as “<=162”, the Ki (Cholinesterase [2]) is reported as 73.3 nM and the RatioGI50 (HeLa [3]) is reported as “<=306”. For the same molecule, the Ki (Cholinesterase [4]) was 43.3 nM, the GI50 (T47D [5]) was 210 nM and the Activity (T47D [6]) was “Active”. The Activity (A549 [7]) was “Active”, the RatioGI50 (A549 [8]) was “<=162” and the T1/2 [9] was 1.14 h. The Activity (HBL-100 [10]) was over 50%, the GI50 (HBL-100 [11]) was 170 nM and the RatioGI50 (HeLa [12]) was “<=162”. It also gave a GI50 (A549 [13]) of 140 nM, an Activity [14] of 36.5 µM/min and a Ratio Ki [15] of 2.8. The RatioGI50 (SW1573 [16]) was “<=306”, the Activity (WiDr [17]) was “Active” and the Activity (SW1573 [18]) was “Active”. The RatioGI50 (WiDr [19]) was “<=162”, the Activity (WiDr [20]) was “Active” and the RatioGI50 (WiDr [21]) was “<=306”. For the same molecule, the Activity (A549 [22]) was “Active”, the RatioGI50 (HBL-100 [23]) was “<=162” and the Activity (HeLa [24]) was “Active”. The Activity (HBL-100 [25]) was “Active”, the RatioGI50 (HBL-100 [26]) was “<=306” and the RatioGI50 (T47D [27]) was “<=306”. The RatioGI50 (T47D [28]) was “<=162”, the Ki (Acetylcholinesterase [29]) was 26.3 nM and the GI50 (SW1573 [30]) was 130 nM. The Activity (HeLa [31]) was “Active”, the GI50 at 48 h (in vitro) was 240 nM and the GI50 (HeLa [32]) was 160 nM. The Ki (Acetylcholinesterase [33]) was 26.3 nM, the GI50 (WiDr [34]) was 240 nM and the Activity (T47D [35]) was over 50%. For the same molecule, the Activity (SW1573 [36]) was “Active” and the fold change (FC) [37] was 4.7.
